Test results published in patent US20060069132A1, “Azolecarboxamide herbicides” (priority 2004, published 2006).

Key:
barnyardgrass [1] = experiment: Test B pre-/postemergence herbicide test; format: in vivo, Echinochloa crus-galli; conditions: for Barnyardgrass plant response rating: postemergence
In short: (§1)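 Seeds were planted and treated preemergence with compounds formulated in a non-phytotoxic solvent mixture containing surfactant, while plants at the 1- to 4-leaf stage (2 to 18 cm) received postemergence sprays. Flooded paddy plants were grown to the 2-leaf stage. After 13 to 15 days in a greenhouse, injury was visually rated 0–100 against untreated controls.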

wild oat = experiment: Test B postemergence herbicide test; format: in vivo, Avena fatua; conditions: for Oat, Wild plant response rating: postemergence
In short: (§2)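 Postemergence plants were sprayed with formulated test chemicals at 2 to 18 cm height (1- to 4-leaf stage); paddy species were grown to the 2-leaf stage. After 13 to 15 days in a greenhouse, injury was rated visually against untreated controls on a 0–100 scale (0 = no effect, 100 = complete control).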

giant foxtail = experiment: Test B pre-/postemergence herbicide test; format: in vivo, Setaria faberi; conditions: for Foxtail, Giant plant response rating: postemergence
In short: (§3)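 Herbicidal effect was judged by eye on a 0–100 scale after plants stood 13 to 15 days in the greenhouse following pre- or postemergence treatment with surfactant-containing formulations.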

pigweed = experiment: Test B pre-/postemergence herbicide test; format: in vivo, Amaranthus retroflexus; conditions: for Pigweed plant response rating: postemergence
In short: as §3

blackgrass = experiment: Test B postemergence herbicide test; format: in vivo, Alopecurus myosuroides; conditions: scale 0 (no effect) to 100 (complete control); for Blackgrass plant response rating: postemergence, visual rating
In short: as §2

ducksalad = experiment: Test B flooded paddy test; format: in vivo, Heteranthera limosa; conditions: 1000 g ai/ha, scale 0 to 100 (0 no effect, 100 complete control)
In short: as §2

[2] = system: small flower umbrella sedge; experiment: Test B flooded paddy test; format: in vivo, Cyperus difformis; conditions: 1000 g ai/ha, scale 0 to 100 (0 no effect, 100 complete control)
In short: as §2

lambsquarters = experiment: Test B pre-/postemergence herbicide test; format: in vivo, Chenopodium album; conditions: for Lambsquarters plant response rating: postemergence
In short: as §3

velvetleaf = experiment: Test B pre-/postemergence herbicide test; format: in vivo, Abutilon theophrasti; conditions: for Velvetleaf plant response rating: postemergence
In short: as §3

rice [3] = experiment: Test B flooded paddy test; format: in vivo, Oryza sativa; conditions: 1000 g ai/ha, scale 0 to 100 (0 no effect, 100 complete control)
In short: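 Treated at 2-leaf (paddy) or 1–4-leaf, 2–18 cm (postemergence); greenhouse 13–15 d; visual score vs control, 0 none to 100 complete control; dash = not tested.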

rice [4] = experiment: Test B pre-/postemergence herbicide test; format: in vivo, Oryza sativa; conditions: preemergence
In short: as §3

morningglory = experiment: Test B pre-/postemergence herbicide test; format: in vivo, Ipomoea coccinea; conditions: for Morningglory plant response rating: postemergence
In short: as §1

Surinam grass = experiment: Test B pre-/postemergence herbicide test; format: in vivo, Urochloa decumbens; conditions: for Surinam Grass plant response rating: postemergence
In short: as §3

wheat = experiment: Test B postemergence herbicide test; format: in vivo, Triticum aestivum; design: key to Wheat plant response rating: 0 = no effect, 100 = complete control; conditions: for Wheat plant response rating: postemergence
In short: as §2

large crabgrass = experiment: Test B pre-/postemergence herbicide test; format: in vivo, Digitaria sanguinalis; conditions: for Crabgrass, Large plant response rating: postemergence
In short: as §3

barnyardgrass [5] = experiment: Test B flooded paddy test; format: in vivo, Echinochloa crus-galli; conditions: 1000 g ai/ha, scale 0 to 100 (0 no effect, 100 complete control)
In short: as §2

corn = experiment: Test B pre-/postemergence herbicide test; format: in vivo, Zea mays; conditions: for Corn plant response rating: postemergence
In short: as §3

cocklebur = experiment: Test B pre-/postemergence herbicide test; format: in vivo, Xanthium strumarium; conditions: for Cocklebur plant response rating: postemergence
In short: as §1

[6] = 500 g ai/ha, visual rating 0-100, 0 no effect, 100 complete control, preemergence
[7] = Postemergence, 500 g ai/ha, visual rating after 13 to 15 days, scale 0 (no effect) to 100 (complete control)
[8] = 125 g ai/ha, visual rating, scale 0 (no effect) to 100 (complete control)
[9] = preemergence, 125 g ai/ha, 0 to 100 scale, 0 is no effect, 100 is complete control
[10] = 125 g ai/ha, 0 = no effect, 100 = complete control, preemergence
[11] = 500 g ai/ha, visual rating, 0 = no effect, 100 = complete control, preemergence
[12] = 500 g ai/ha, visual rating, scale 0 (no effect) to 100 (complete control)
[13] = 500 g ai/ha, scale 0 to 100, 0 is no effect, 100 is complete control

## CCCCn1nc(C(C)(C)C)cc1C(=O)Nc1cccc(C(C)=NO)c1 [Compound 119]
Barnyardgrass [1]; [6]
  Plant response rating, Barnyardgrass: 10
Barnyardgrass [1]; [7]
  Plant response rating, Barnyardgrass: 10
Barnyardgrass [1]; [8]
  Barnyardgrass plant response rating: 0
Barnyardgrass [1]; [9]
  Plant response rating, Barnyardgrass: 0
Wild oat; [7]
  Plant response rating, Oat, Wild: 20
Wild oat; [8]
  Oat, Wild plant response rating: 10
Giant foxtail; [6]
  Plant response rating, Foxtail, Giant: 0
Giant foxtail; [7]
  Plant response rating, Foxtail, Giant: 10
Giant foxtail; [8]
  Foxtail, Giant plant response rating: 10
Giant foxtail; [9]
  Plant response rating, Foxtail, Giant: 0
pigweed; [6]
  Plant response rating, Pigweed: 0
pigweed; [7]
  Plant response rating, Pigweed: 30
pigweed; [8]
  Pigweed plant response rating: 0
pigweed; [9]
  Plant response rating, Pigweed: 0
blackgrass; Postemergence, 500 g ai/ha, visual rating after 13 to 15 days
  Plant response rating, Blackgrass: 10
blackgrass; 125 g ai/ha
  Blackgrass plant response rating: 0
ducksalad; visual rating, 13 to 15 days
  Ducksalad plant response rating: 0
[2]; visual rating, 13 to 15 days
  Sedge, Umbrella plant response rating: 0
lambsquarters; [6]
  Plant response rating, Lambsquarters: 0
lambsquarters; [7]
  Plant response rating, Lambsquarters: 60
lambsquarters; [8]
  Lambsquarters plant response rating: 0
lambsquarters; [9]
  Plant response rating, Lambsquarters: 0
velvetleaf; [6]
  Plant response rating, Velvetleaf: 10
velvetleaf; [7]
  Plant response rating, Velvetleaf: 50
velvetleaf; [8]
  Velvetleaf plant response rating: 0
velvetleaf; [9]
  Plant response rating, Velvetleaf: 0
Rice [3]; visual rating, 13 to 15 days
  Rice plant response rating: 0
Rice [4]; 125 g ai/ha, 0 to 100 scale, 0 is no effect, 100 is complete control
  Plant response rating, Rice: 0
morningglory; [6]
  Plant response rating, Morningglory: 10
morningglory; [7]
  Plant response rating, Morningglory: 40
morningglory; [8]
  Morningglory plant response rating: 0
morningglory; [9]
  Plant response rating, Morningglory: 0
Surinam grass; [6]
  Plant response rating, Surinam Grass: 10
Surinam grass; [7]
  Plant response rating, Surinam Grass: 10
Surinam grass; [8]
  Surinam Grass plant response rating: 10
Surinam grass; [9]
  Plant response rating, Surinam Grass: 0
wheat; [7]
  Plant response rating, Wheat: 0
wheat; [8]
  Wheat plant response rating: 0
Large crabgrass; [6]
  Plant response rating, Crabgrass, Large: 80
Large crabgrass; [7]
  Plant response rating, Crabgrass, Large: 20
Large crabgrass; [8]
  Crabgrass, Large plant response rating: 20
Large crabgrass; [9]
  Plant response rating, Crabgrass, Large: 20
Barnyardgrass [5]; visual rating, 13 to 15 days
  Barnyardgrass plant response rating: 0
corn; [6]
  Plant response rating, Corn: 0
corn; [7]
  Plant response rating, Corn: 30
corn; [8]
  Corn plant response rating: 10
corn; [9]
  Plant response rating, Corn: 0
cocklebur; [6]
  Plant response rating, Cocklebur: 0
cocklebur; [7]
  Plant response rating, Cocklebur: 60
cocklebur; [8]
  Cocklebur plant response rating: 0
cocklebur; [9]
  Plant response rating, Cocklebur: 0

## CCN(CC)C(=O)c1cc(NC(=O)c2cc(C(C)(C)C)nn2CC)c(F)cc1F [Compound 253]
Barnyardgrass [1]; [10]
  Barnyardgrass plant response rating (0 to 100 scale): 0
Barnyardgrass [1]; [11]
  Plant response rating, Barnyardgrass: 10
Barnyardgrass [1]; [8]
  Barnyardgrass plant response rating: 0
Barnyardgrass [1]; [12]
  Barnyardgrass plant response rating: 10
Wild oat; [8]
  Oat, Wild plant response rating: 20
Wild oat; [13]
  Oat, Wild plant response rating: 30
Giant foxtail; [10]
  Foxtail, Giant plant response rating (0 to 100 scale): 0
Giant foxtail; [11]
  Plant response rating, Foxtail, Giant: 30
Giant foxtail; [8]
  Foxtail, Giant plant response rating: 0
Giant foxtail; [13]
  Foxtail, Giant plant response rating: 0
pigweed; [8]
  Pigweed plant response rating: 20
pigweed; [13]
  Pigweed plant response rating: 30
blackgrass; 125 g ai/ha
  Blackgrass plant response rating: 20
blackgrass; 500 g ai/ha
  Blackgrass plant response rating: 20
ducksalad
  Ducksalad plant response rating: 60
[2]
  Sedge, Umbrella plant response rating: 20
lambsquarters; [10]
  Lambsquarters plant response rating (0 to 100 scale): 0
lambsquarters; [8]
  Lambsquarters plant response rating: 20
lambsquarters; [13]
  Lambsquarters plant response rating: 30
velvetleaf; [10]
  Velvetleaf plant response rating (0 to 100 scale): 0
velvetleaf; [11]
  Plant response rating, Velvetleaf: 20
velvetleaf; [8]
  Velvetleaf plant response rating: 10
velvetleaf; [13]
  Velvetleaf plant response rating: 10
Rice [3]
  Rice plant response rating: 50
Rice [4]; 125 g ai/ha, 0 = no effect, 100 = complete control
  Rice plant response rating (0 to 100 scale): 0
Rice [4]; 500 g ai/ha, visual rating, 0 = no effect, 100 = complete control
  Plant response rating, Rice: 0
morningglory; [10]
  Morningglory plant response rating (0 to 100 scale): 0
morningglory; [11]
  Plant response rating, Morningglory: 0
morningglory; [8]
  Morningglory plant response rating: 0
morningglory; [13]
  Morningglory plant response rating: 30
Surinam grass; [10]
  Surinam Grass plant response rating (0 to 100 scale): 10
Surinam grass; [11]
  Plant response rating, Surinam Grass: 30
Surinam grass; [8]
  Surinam Grass plant response rating: 0
Surinam grass; [13]
  Surinam Grass plant response rating: 0
wheat; [8]
  Wheat plant response rating: 20
wheat; [13]
  Wheat plant response rating: 30
Large crabgrass; [10]
  Crabgrass, Large plant response rating (0 to 100 scale): 20
Large crabgrass; [8]
  Crabgrass, Large plant response rating: 0
Large crabgrass; [13]
  Crabgrass, Large plant response rating: 0
Barnyardgrass [5]
  Barnyardgrass plant response rating: 0
corn; [10]
  Corn plant response rating (0 to 100 scale): 0
corn; [11]
  Plant response rating, Corn: 0
corn; [8]
  Corn plant response rating: 0
corn; [13]
  Corn plant response rating: 0
cocklebur; [10]
  Cocklebur plant response rating (0 to 100 scale): 0
cocklebur; [11]
  Plant response rating, Cocklebur: 0
cocklebur; [8]
  Cocklebur plant response rating: 10
cocklebur; [12]
  Cocklebur plant response rating: 20
